This note sets out measurements from publication PMC8151276, “An Integrated Approach toward NanoBRET Tracers for Analysis of GPCR Ligand Engagement” (Molecules, 2021).

This experiment addresses T1, FZD6 (Homo sapiens, UniProt O60353).
T1 construct: purchased Promega (in-house HiBiT-GPCR construct library, NanoBRET)
T1 sequence (O60353 19-706): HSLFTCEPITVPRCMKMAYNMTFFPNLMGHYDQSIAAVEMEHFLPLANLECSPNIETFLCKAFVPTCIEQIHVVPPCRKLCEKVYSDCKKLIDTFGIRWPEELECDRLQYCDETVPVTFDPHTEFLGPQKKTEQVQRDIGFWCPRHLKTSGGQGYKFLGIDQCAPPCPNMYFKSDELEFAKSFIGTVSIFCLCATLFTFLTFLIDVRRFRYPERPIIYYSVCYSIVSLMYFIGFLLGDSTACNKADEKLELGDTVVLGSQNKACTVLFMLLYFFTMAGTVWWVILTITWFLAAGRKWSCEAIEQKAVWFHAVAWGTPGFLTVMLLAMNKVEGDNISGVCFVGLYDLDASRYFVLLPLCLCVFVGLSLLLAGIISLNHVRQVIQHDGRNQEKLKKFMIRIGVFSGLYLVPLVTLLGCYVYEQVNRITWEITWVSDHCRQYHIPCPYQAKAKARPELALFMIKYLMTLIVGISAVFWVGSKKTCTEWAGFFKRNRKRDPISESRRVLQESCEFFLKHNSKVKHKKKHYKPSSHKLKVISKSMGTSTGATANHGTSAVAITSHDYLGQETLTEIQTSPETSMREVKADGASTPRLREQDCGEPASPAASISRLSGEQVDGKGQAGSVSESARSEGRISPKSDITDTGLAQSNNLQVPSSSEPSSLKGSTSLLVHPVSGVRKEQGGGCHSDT
The experiment in a line: NanoBRET screen HiBiT-FZD6 in HEK293. The format is binding. The method, then: Each tracer candidate was screened across the entire library of HiBiT-GPCR constructs using NanoBRET as the detection modality. As depicted in Figure 4A, the specificity of interactions was evaluated through decrease in BRET due to competitive displacement of a bound tracer by excess parental compound. Each tracer was analyzed for binding to each HiBiT-GPCR fusion in the absence and in the presence of competing parental compound. Briefly, HEK293 cells were transfected with HiBiT-GPCR constructs diluted into promoterless DNA to reduce expression and maximize translocation to the cell surface. Each tracer candidate was then screened at concentrations of 1 μM and 0.1 μM across cells expressing these fusions. Cells were treated for 1.5 h with tracer either alone or in the presence of 20 μM competing parental compound (i.e., control). BRET was measured upon addition of purified LgBiT and subsequent complementation with HiBiT genetically fused to a GPCR. The specificity of interactions was assessed through a decrease in BRET signal due to competitive displacement of the bound tracer. To further gauge the robustness of these interactions, the fold response over the control (i.e., BRETtracer/BRETcontrol) was calculated. We chose a 1.5-fold response, which translates to ≥7-fold signal over noise as the minimal threshold required to score an interaction as positive. […]. Below we highlight the screening results obtained for our exemplary fluorescent tracers based on Clozapine, Amitriptyline and AZD1283.
HiBiT-GPCR DNA constructs were diluted in 10 mM Tris pH 8 to a final concentration of 0.01 μg/μL, arrayed in 96-well plates and stored at −20 °C. For transfection, HEK293 cells were suspended in Opti-MEM (without phenol red) supplemented with 2% fetal bovine serum (Seradigm) and 100 units/mL penicillin–streptomycin (Gibco) at a final concentration of 220,000 cells/mL and dispensed into white 96-well plates at 90 μL/well. Subsequent transfections and screens were carried using an Agilent Bravo Automated Liquid Handling Platform. First, the 96-well HiBiT DNA arrays were diluted 25-fold in Opti-MEM (without serum or phenol red) to a final concentration of 0.0004 μg/μL and 20 μL of the diluted DNAs were transferred into new 96-well plates. Next, promoterless carrier DNA (1 μg/μL) was diluted 25-fold (0.04 μg/μL) and then dispensed into the diluted arrays at 20 μL/well. Following brief mixing, Viafect transfection reagent (Promega) diluted 16-fold into Opti-MEM was dispensed into the plates at 40 μL/well. After mixing by pipetting, plates were incubated for 10 min on the pipetting station deck. The DNA-transfection reagent complexes were then added to plates containing cells. To facilitate the screen, 10 μL of DNA-transfection reagent complexes were added in duplicates to the top 4 and bottom 4 rows, resulting in two identical 48-well arrays per plate. Plates with transfected cells were incubated for 18–20 h at 37 °C/5% CO2. A screen of each tracer across the entire library using two different concentrations requires duplicate plates of transfected cells. Depending on the number of tracers being screened, transfections can be scaled up using the same ratios. The next day, for each tracer, four 20× screening solutions in tracer dilution buffer (Promega) were prepared: two duplicates at final concentration of 20 μM and two duplicates at a final concentration of 2 μM. A competing unmodified compound was added to one of each duplicate at a final concentration of 400 μM. The four resulting solutions were diluted 4-fold in Opti-MEM without serum or phenol red to generate 5× solutions (5 µM and 0.5 µM tracer +/− 100 μM competing compound). To screen the library, a BioTek MultiFlo FX liquid dispenser was used to dispense 22.5 µL of tracer solution to the top 4 rows and 22.5 µL tracer + competing compound solution to the 4 bottom rows. Plates were briefly mixed on an orbital shaker and incubated for 1.5 h at room temperature. […]
In general terms: BRET reads energy transfer from a luciferase to a nearby fluorophore.

Regarding `O=C(CCOCCOCCOCCOCCNC(=O)CCc1ccc2n1[B-](F)(F)[N+]1=C(c3ccc[nH]3)C=CC1=C2)NCCCN1CCN(C2=Nc3ccccc3Oc3ccc(Cl)cc32)CC1` [Loxapine-a-2-NB590], the “NanoBRET Fold Response” value was 1.09 (FZD6, tracer 0.1μM) and 1.06 (FZD6, tracer 1μM). The matching figures for `CCCn1c(=O)c2[nH]c(-c3ccc(OCC(=O)NCCNC(=O)CCOCCNC(=O)c4ccc(CNC(=O)CCc5ccc6n5[B-](F)(F)[N+]5=C(c7ccc[nH]7)C=CC5=C6)cc4)cc3)nc2n(CCC)c1=O` [XAC-3-NB590]: 0.95 and 1.05. As to `CN(C)CCC=C1c2ccccc2CCc2ccc(C(=O)NCCNC(=O)CCOCCOCCOCCOCCNC(=O)CCc3ccc4n3[B-](F)(F)[N+]3=C(c5ccc[nH]5)C=CC3=C4)cc21` [Amitriptyline-a-2-NB590], the “NanoBRET Fold Response” value is reported as 1.10 (tracer at 0.1μM) and 1.03 (tracer at 1μM). In the case of `COc1ccccc1N1CCN(CCCCN2C(=O)c3ccc(CNC(=O)CCOCCOCCOCCOCCNC(=O)CCc4ccc5n4[B-](F)(F)[N+]4=C(c6ccc[nH]6)C=CC4=C5)cc3C2=O)CC1` [NAN-190-2-NB590], the “NanoBRET Fold Response” value (FZD6, tracer 0.1μM) was 0.95 and the “NanoBRET Fold Response” value (FZD6, tracer 1μM) was found to be 1.04. Turning to `O=C(CCc1ccc2n1[B-](F)(F)[N+]1=C(c3ccc[nH]3)C=CC1=C2)NCc1ccc(C(=O)NCCOCCOCCNCC(O)COc2cccc3ccccc23)cc1` (centres unmarked) [Propranolol-3-NB590], the “NanoBRET Fold Response” value worked out at 1.06 (FZD6, 0.1μM) and 1.01 (FZD6, 1μM).

Regarding `COc1ccccc1N1CCN(CCCCN2C(=O)c3ccc(CNC(=O)CCOCCNC(=O)c4ccc(CNC(=O)CCc5ccc6n5[B-](F)(F)[N+]5=C(c7ccc[nH]7)C=CC5=C6)cc4)cc3C2=O)CC1` [NAN-190-3-NB590], the “NanoBRET Fold Response” value by setting is: (FZD6, tracer 0.1μM) 0.95; (FZD6, tracer 1μM) 1.13. As to `O=C(CCc1ccc2n1[B-](F)(F)[N+]1=C(c3ccc[nH]3)C=CC1=C2)NCc1ccc(C(=O)NCCOCCC(=O)N[C@@H]2CC[C@@]3(O)[C@H]4Cc5ccc(O)c6c5[C@@]3(CCN4CC3CC3)[C@H]2O6)cc1` [Naltrexone-3-NB590], the “NanoBRET Fold Response” value reads like this: (FZD6, tracer 0.1μM) 0.94; (FZD6, tracer 1μM) 1.10. On to `CCOC(=O)c1cc(C#N)c(N2CCC(C(=O)NS(=O)(=O)Cc3ccccc3/C=C/C(=O)NCCNC(=O)CCc3ccc4n3[B-](F)(F)[N+]3=C(c5ccc[nH]5)C=CC3=C4)CC2)nc1C` [AZD1283-1-NB590], for which the “NanoBRET Fold Response” value reads like this: (FZD6, 0.1μM) 1.01; (FZD6, 1μM) 0.35. In the case of `COc1ccc2[nH]c(-c3ccc(CNC(=O)CCOCCOCCOCCOCCNC(=O)CCc4ccc5n4[B-](F)(F)[N+]4=C(c6ccc[nH]6)C=CC4=C5)cc3)c(CCNC(C)=O)c2n1` [AzomelatoninICO9-2-NB590], the “NanoBRET Fold Response” value is, setting by setting: (0.1μM tracer) 1.12; (1μM tracer) 0.94. In the case of `CC(C)N(CC[C@H](c1ccccc1)c1cc(CCNC(=O)CCOCCOCCOCCOCCNC(=O)CCc2ccc3n2[B-](F)(F)[N+]2=C(c4ccc[nH]4)C=CC2=C3)ccc1O)C(C)C` [Tolterodine-2-NB590], the “NanoBRET Fold Response” value was determined as 0.83 (FZD6, tracer 0.1μM) and 0.88 (FZD6, tracer 1μM). Consider `CN1CCN(C2=Nc3cc(Cl)ccc3N(CC(=O)NCCOCCOCCOCCOCCNC(=O)CCc3ccc4n3[B-](F)(F)[N+]3=C(c5ccc[nH]5)C=CC3=C4)c3ccccc32)CC1` [Clozapine-c-2-NB590], for which the “NanoBRET Fold Response” value was found to be 1.01 (FZD6, 0.1μM tracer) and 1.04 (FZD6, 1μM tracer). Take `N#CN=C(NCCCOc1cccc(CN2CCCCC2)c1)NCCNC(=O)CCOCCOCCOCCOCCNC(=O)CCc1ccc2n1[B-](F)(F)[N+]1=C(c3ccc[nH]3)C=CC1=C2` [Aminopotentidine-2-NB590]: the “NanoBRET Fold Response” value by setting is: (FZD6, tracer 0.1μM) 1.03; (FZD6, tracer 1μM) 1.03. As for `COc1ccc2c(n1)c(CCNC(C)=O)cn2CCNC(=O)CCc1ccc2n1[B-](F)(F)[N+]1=C(c3ccc[nH]3)C=CC1=C2` [Azamelatonin-1-NB590], the “NanoBRET Fold Response” value is, setting by setting: (0.1μM tracer) 1.09; (1μM tracer) 0.86. For the molecule `CN(CCC=C1c2ccccc2CCc2ccccc21)C(=O)CCOCCOCCOCCOCCNC(=O)CCc1ccc2n1[B-](F)(F)[N+]1=C(c3ccc[nH]3)C=CC1=C2` [Amitriptyline-e-2-NB590], the “NanoBRET Fold Response” value (tracer at 1μM) was 1.09.

Take `CC(C)N(CC[C@H](c1ccccc1)c1cc(CCNC(=O)c2ccc(CNC(=O)CCc3ccc4n3[B-](F)(F)[N+]3=C(c5ccc[nH]5)C=CC3=C4)cc2)ccc1O)C(C)C` [Tolterodine-BZ-NB590]: the “NanoBRET Fold Response” value is 0.97 (FZD6, tracer 0.1μM) and 1.04 (FZD6, tracer 1μM). On the same counts, the results for `O=C(CCc1ccc2n1[B-](F)(F)[N+]1=C(c3ccc[nH]3)C=CC1=C2)NCCOCCOCCNC(=O)OCCOCCN1CCN(C2=Nc3ccccc3Sc3ccccc32)CC1` [Quetiapine-a-2-NB590] are 1.01 and 1.15. For the molecule `Cc1cc2c(s1)Nc1ccccc1N=C2N1CCN(CCCNC(=O)CCOCCOCCOCCOCCNC(=O)CCc2ccc3n2[B-](F)(F)[N+]2=C(c4ccc[nH]4)C=CC2=C3)CC1` [Olanzapine-a-2-NB590], the “NanoBRET Fold Response” value worked out at 1.03 (FZD6, tracer 0.1μM) and 0.98 (FZD6, tracer 1μM). `CN(C)CCC=C1c2ccccc2CCc2ccc(C(=O)NCCNC(=O)CCOCCOCCOCCOCCNC(=O)CCc3ccc4n3[B-](F)(F)[N+]3=C(c5ccc[nH]5)C=CC3=C4)cc21` [Amitriptyline-b-2-NB590]: the “NanoBRET Fold Response” value (tracer at 0.1μM, listed as amitriptyline-b-2-NB590) amounted to 1.00 and the “NanoBRET Fold Response” value (tracer at 1μM) was 0.98. For the molecule `O=C(CCOCCOCCOCCOCCNC(=O)CCc1ccc2n1[B-](F)(F)[N+]1=C(c3ccc[nH]3)C=CC1=C2)NCCCN1CCN(C2=Nc3cc(Cl)ccc3Nc3ccccc32)CC1` [Clozapine-a-2-NB590], the “NanoBRET Fold Response” value runs as follows: (FZD6, 0.1μM tracer) 0.99; (FZD6, 1μM tracer) 0.93. Regarding `CN1CCN(C2=Nc3cc(Cl)ccc3Nc3ccc(CNC(=O)CCOCCOCCOCCOCCNC(=O)CCc4ccc5n4[B-](F)(F)[N+]4=C(c6ccc[nH]6)C=CC4=C5)cc32)CC1` [Clozapine-b-2-NB590], the “NanoBRET Fold Response” value (FZD6, 0.1μM tracer) is on record as 1.03 and the “NanoBRET Fold Response” value (FZD6, 1μM tracer) was found to be 1.04.

For `Cc1nc2n(c(=O)c1CCN1CCC(c3noc4cc(F)ccc34)CC1)CCCC2OC(=O)NCCOCCOCCOCCOCCNC(=O)CCc1ccc2n1[B-](F)(F)[N+]1=C(c3ccc[nH]3)C=CC1=C2` (centres unmarked) [Risperidone-2-NB590], the “NanoBRET Fold Response” value (FZD6, tracer 0.1μM) was determined as 1.01 and the “NanoBRET Fold Response” value (FZD6, tracer 1μM) came to 1.10.
